Assay results from US20160201063A1, “EPIGENETIC REGULATORS OF FRATAXIN” (RANA THERAPEUTICS, INC., priority 2013, published 2016).

Columns and labels:
FXN protein [1] = assay: Western blot of FXN protein in gapmer-treated GM03816 lysates; type: cell-based, human; details: treated vs untreated
Text: Next, a Western blot with the Abcam ab48281 FXN and Abcam ab125267 tubulin antibodies were run using treated and untreated GM03816 lysates.

FXN mRNA = assay: Gapmer screen in differentiated myotubes, FXN mRNA levels; type: cell-based; details: 4 days after transfection
Text: Subsequently, various oligos targeting ACTL6A, EID1, HIC1, JUND, KAT2A, PRKCD, and YEATS4 were screened in differentiated myotubes for FXN mRNA levels. Measurements were taken 4 days after transfection.

FXN protein [2] = assay: FXN protein western blot in GM03816 and GM04078 cells treated with histone lysine methyltransferase inhibitor; type: cell-based, human; details: 3 days of HLMi treatment, 5 μM, 2.5 μM, 1.25 μM, vs DMSO
Protocol: Results from control cells treated with DMSO and without inhibitor treatment are also shown.
Human FRDA diseased cell lines GM03816 and GM04078 were plated at 150000 cells/well. The cells were treated at various concentrations and times with a histone lysine methyltransferase inhibitor dissolved in DMSO. The antibody used for detection of FXM protein was Abcam human FXN antibody (ab48281).

Compound	FXN protein level (western blot) (FXN protein [1])	FXN mRNA level (FXN mRNA)	FXN protein level (western blot) (FXN protein [2])
PRKCD-2: LNA/DNA gapmer to human PRKCD, SEQ ID NO 42, TGCGCATAGACTGTT (LNA modifications, chemistry not fully specified)	strong upregulation	upregulation of FXN mRNA	–
ACTL6A-03: LNA/DNA gapmer to human ACTL6A, SEQ ID NO 3, GAACGACCATTAGCA (LNA modifications, chemistry not fully specified)	strong upregulation	upregulation of FXN mRNA	–
COc1cc2nc(N3CCCN(C)CC3)nc(NC3CCN(Cc4ccccc4)CC3)c2cc1OC [HLMi, 2-(Hexahydro-4-methyl-1H-1,4-diazepin-1-yl)-6,7-dimethoxy-N-(1-(phenylmethyl)-4-piperidinyl)-4-quinazolinamine]	–	–	FXN human protein upregulation
YEATS4-9: LNA/DNA gapmer to human YEATS4, SEQ ID NO 91, AGTTTCACGACTTGC (LNA modifications, chemistry not fully specified)	–	upregulation of FXN mRNA	–
JUND-1: LNA/DNA gapmer to human JUND, SEQ ID NO 61, CCGTAGAAGGGTGTT (LNA/DNA gapmer, wing pattern not given here)	strong upregulation	upregulation of FXN mRNA	–
KAT2A-06: LNA/DNA gapmer to human KAT2A, SEQ ID NO 36, GGCGATATACTCCTT (LNA modifications, chemistry not fully specified)	–	upregulation of FXN mRNA	–
